Legend:
[1] = Cytotoxicity against African green monkey Vero cells assessed as cytopathic effect after 48 hrs; format: cell-based; conditions: chlorocebus sabaeus, read-out: TC50
Coxsackievirus B3 = assay: Antiviral activity against Coxsackievirus B3 Nancy infected in African green monkey Vero cells assessed as inhibition of virus-induced cytopathic effect; format: functional; conditions: Enterovirus B
[2] = Selectivity index, ratio of TC50 for African green monkey Vero cells to IC50 for Coxsackievirus B3 Nancy infected in African green monkey Vero cells; format: toxicity; conditions: read-out: Selectivity Index
[3] = Acute toxicity in po dosed Kunming mouse measured for 7 days; format: organism-based; conditions: in vivo
Coxsackievirus B1 = assay: Antiviral activity against Coxsackievirus B1 Conn 5 infected in African green monkey Vero cells assessed as inhibition of virus-induced cytopathic effect; format: functional; conditions: Enterovirus B, Conn 5, Vero
[4] = Antiviral activity against Coxsackievirus B2 Ohio-1 infected in African green monkey Vero cells assessed as inhibition of virus-induced cytopathic effect; format: functional, Coxsackievirus B2 (strain Ohio-1); conditions: Enterovirus B
Coxsackievirus B4 = assay: Antiviral activity against Coxsackievirus B4 JVB infected in African green monkey Vero cells assessed as inhibition of virus-induced cytopathic effect; format: functional; conditions: Enterovirus B
Coxsackievirus B5 = assay: Antiviral activity against Coxsackievirus B5 Faulkner infected in African green monkey Vero cells assessed as inhibition of virus-induced cytopathic effect; format: functional; conditions: Enterovirus B
[5] = Antiviral activity against Coxsackievirus B6 Schmitt infected in African green monkey Vero cells assessed as inhibition of virus-induced cytopathic effect; format: functional, Coxsackievirus B6 (strain Schmitt); conditions: Enterovirus B
[6] = Selectivity index, ratio of TC50 for African green monkey Vero cells to IC50 for Coxsackievirus B1 Conn 5 infected in African green monkey Vero cells; format: toxicity; conditions: read-out: Selectivity Index
[7] = Selectivity index, ratio of TC50 for African green monkey Vero cells to IC50 for Coxsackievirus B2 Ohio-1 infected in African green monkey Vero cells; format: toxicity; conditions: read-out: Selectivity Index
[8] = Selectivity index, ratio of TC50 for African green monkey Vero cells to IC50 for Coxsackievirus B4 JVB infected in African green monkey Vero cells; format: toxicity; conditions: read-out: Selectivity Index
[9] = Selectivity index, ratio of TC50 for African green monkey Vero cells to IC50 for Coxsackievirus B5 Faulkner infected in African green monkey Vero cells; format: toxicity; conditions: read-out: Selectivity Index
[10] = Selectivity index, ratio of TC50 for African green monkey Vero cells to IC50 for Coxsackievirus B6 Schmitt infected in African green monkey Vero cells; format: toxicity; conditions: read-out: Selectivity Index
[11] = Tmax in Sprague-Dawley rat at 25 mg/kg, po; format: ADME, organism-based; conditions: in vivo
[12] = Cmax in Sprague-Dawley rat at 25 mg/kg, po; format: ADME, organism-based; set-up: dose 25 mg/kg, route oral; conditions: in vivo
[13] = AUC (0 to t) in Sprague-Dawley rat at 25 mg/kg, po; format: ADME, organism-based; conditions: in vivo
[14] = AUC (0 to infinity) in Sprague-Dawley rat at 25 mg/kg, po; format: ADME, organism-based; set-up: dose 25 mg/kg, route oral, time infinity; conditions: in vivo
[15] = MRT in Sprague-Dawley rat at 25 mg/kg, po; format: ADME, organism-based; conditions: in vivo
[16] = Half life in Sprague-Dawley rat at 25 mg/kg, po; format: ADME, organism-based; conditions: in vivo

C1CCN2C[C@@H]3CCCN4CCC[C@@H]([C@H]34)[C@H]2C1
CC50 at 48 h [1]: 652 µM
IC50 (Coxsackievirus B3): 57 µM
selectivity ratio [2]: 11.4

NC(=O)c1cccc(S(=O)(=O)N2C[C@@H]3CCCN4CCC[C@@H]([C@H]34)[C@H]2CCO)c1
CC50 at 48 h [1]: > 491 µM
IC50 (Coxsackievirus B3): 9.25 µM
selectivity ratio [2]: > 53.1

N#Cc1ccccc1S(=O)(=O)N1C[C@@H]2CCCN3CCC[C@@H]([C@H]23)[C@H]1CCCl
CC50 at 48 h [1]: > 452 µM
IC50 (Coxsackievirus B3): 1.85 µM
selectivity ratio [2]: > 244
LD50 at 168 h [3]: 348 mg/kg

CCCC[C@@H]1[C@H]2CCCN3CCC[C@@H](CN1S(=O)(=O)c1ccccc1C#N)[C@@H]23
CC50 at 48 h [1]: 116 to 200 µM
IC50 (Coxsackievirus B3): 1.04 µM
selectivity ratio [2]: 111
LD50 at 168 h [3]: > 500 mg/kg
IC50 (Coxsackievirus B1): 1.52 µM
IC50 [4]: 1.65 µM
IC50 (Coxsackievirus B4): 5.14 µM
IC50 (Coxsackievirus B5): 0.69 µM
IC50 [5]: 2.06 µM
selectivity ratio [6]: > 132
selectivity ratio [7]: > 121
selectivity ratio [8]: > 38.9
selectivity ratio [9]: > 290
selectivity ratio [10]: 75.3
Tmax [11]: 1.33 h
Cmax [12]: 3.07 µM
AUC(0-t) [13]: 30.9 µM·h
AUC(0-inf) [14]: 31.8 µM·h
MRT [15]: 4.05 h
half-life [16]: 2.48 h

CCCC[C@@H]1[C@H]2CCCN3CCC[C@@H](CN1S(=O)(=O)c1ccc(C(=O)OC)cc1)[C@@H]23
CC50 at 48 h [1]: 367 µM
IC50 (Coxsackievirus B3): 14.2 µM
selectivity ratio [2]: 25.1

N#Cc1ccccc1S(=O)(=O)N1C[C@@H]2CCCN3CCC[C@@H]([C@H]23)[C@H]1CCCCCl
CC50 at 48 h [1]: 204 µM
IC50 (Coxsackievirus B3): 3.99 µM
selectivity ratio [2]: 51.2
LD50 at 168 h [3]: 348 mg/kg

O=S(=O)(c1ccccc1/C=N/O)N1C[C@@H]2CCCN3CCC[C@@H]([C@H]23)[C@H]1CCO
CC50 at 48 h [1]: > 491 µM
IC50 (Coxsackievirus B3): 0.87 µM
selectivity ratio [2]: > 565
LD50 at 168 h [3]: < 500 mg/kg

CC(=O)c1ccc(S(=O)(=O)N2C[C@@H]3CCCN4CCC[C@@H]([C@H]34)[C@H]2CCCl)cc1
CC50 at 48 h [1]: 251 µM
IC50 (Coxsackievirus B3): 12.2 µM
selectivity ratio [2]: 20.5

CCCC[C@@H]1[C@H]2CCCN3CCC[C@@H](CN1S(=O)(=O)c1ccccc1C(=O)OC)[C@@H]23
CC50 at 48 h [1]: 320 µM
IC50 (Coxsackievirus B3): 7.24 µM
selectivity ratio [2]: 44.1

O=S(=O)(c1cccc(C(F)(F)F)c1)N1C[C@@H]2CCCN3CCC[C@@H]([C@H]23)[C@H]1CCCCF
CC50 at 48 h [1]: 100 µM
IC50 (Coxsackievirus B3): 0.82 µM
selectivity ratio [2]: 122

O=S(=O)(c1ccc(C(F)(F)F)cc1)N1C[C@@H]2CCCN3CCC[C@@H]([C@H]23)[C@H]1CCCCF
CC50 at 48 h [1]: 144 µM
IC50 (Coxsackievirus B3): 1.19 µM
selectivity ratio [2]: 121

N#Cc1cccc(S(=O)(=O)N2C[C@@H]3CCCN4CCC[C@@H]([C@H]34)[C@H]2CCF)c1
CC50 at 48 h [1]: > 512 µM
IC50 (Coxsackievirus B3): 74.8 µM
selectivity ratio [2]: > 6.84

CCCC[C@@H]1[C@H]2CCCN3CCC[C@@H](CN1S(=O)(=O)c1ccccc1[N+](=O)[O-])[C@@H]23
CC50 at 48 h [1]: 228 µM
IC50 (Coxsackievirus B3): 2.47 µM
selectivity ratio [2]: 92.5

N#Cc1cccc(S(=O)(=O)N2C[C@@H]3CCCN4CCC[C@@H]([C@H]34)[C@H]2CCCl)c1
CC50 at 48 h [1]: 313 µM
IC50 (Coxsackievirus B3): 3.23 µM
selectivity ratio [2]: 97
LD50 at 168 h [3]: 348 mg/kg

CCCC[C@@H]1[C@H]2CCCN3CCC[C@@H](CN1S(=O)(=O)c1ccc(N)cc1)[C@@H]23
CC50 at 48 h [1]: 82.9 µM
IC50 (Coxsackievirus B3): 23 µM
selectivity ratio [2]: 3.6

N#Cc1cccc(S(=O)(=O)N2C[C@@H]3CCCN4CCC[C@@H]([C@H]34)[C@H]2CCCCF)c1
CC50 at 48 h [1]: 276 µM
IC50 (Coxsackievirus B3): 4.49 µM
selectivity ratio [2]: 61.4
LD50 at 168 h [3]: 654 mg/kg

O=S(=O)(c1ccc(C(F)(F)F)cc1)N1C[C@@H]2CCCN3CCC[C@@H]([C@H]23)[C@H]1CCF
CC50 at 48 h [1]: 358 µM
IC50 (Coxsackievirus B3): 13 µM
selectivity ratio [2]: 27.6

CCCC[C@@H]1[C@H]2CCCN3CCC[C@@H](CN1S(=O)(=O)c1cccc(C#N)c1)[C@@H]23
CC50 at 48 h [1]: 96.2 µM
IC50 (Coxsackievirus B3): 1.14 µM
selectivity ratio [2]: 84.3

CCCC[C@@H]1[C@H]2CCCN3CCC[C@@H](CN1S(=O)(=O)c1cccc(C(=O)OC)c1)[C@@H]23
CC50 at 48 h [1]: 73.7 µM
IC50 (Coxsackievirus B3): 1.45 µM
selectivity ratio [2]: 50.9

N#Cc1cccc(S(=O)(=O)N2C[C@@H]3CCCN4CCC[C@@H]([C@H]34)[C@H]2CCCCCl)c1
CC50 at 48 h [1]: 204 µM
IC50 (Coxsackievirus B3): 8.39 µM
selectivity ratio [2]: 24.3

NC(=O)c1ccc(S(=O)(=O)N2C[C@@H]3CCCN4CCC[C@@H]([C@H]34)[C@H]2CCO)cc1
CC50 at 48 h [1]: > 491 µM
IC50 (Coxsackievirus B3): 16 µM
selectivity ratio [2]: > 30.7

N#Cc1ccccc1S(=O)(=O)N1C[C@@H]2CCCN3CCC[C@@H]([C@H]23)[C@H]1CCCCF
CC50 at 48 h [1]: 230 µM
IC50 (Coxsackievirus B3): 17.7 µM
selectivity ratio [2]: 13
LD50 at 168 h [3]: 560 mg/kg

CCCC[C@@H]1[C@H]2CCCN3CCC[C@@H](CN1S(=O)(=O)c1ccc(OC)cc1)[C@@H]23
CC50 at 48 h [1]: 96.2 µM
IC50 (Coxsackievirus B3): 5.8 µM
selectivity ratio [2]: 16.6

CCCC[C@@H]1[C@H]2CCCN3CCC[C@@H](CN1S(=O)(=O)c1ccc(NC(C)=O)cc1)[C@@H]23
CC50 at 48 h [1]: 96.2 µM
IC50 (Coxsackievirus B3): 2.47 µM
selectivity ratio [2]: 38.9

O=S(=O)(c1ccccc1C(F)(F)F)N1C[C@@H]2CCCN3CCC[C@@H]([C@H]23)[C@H]1CCCCF
CC50 at 48 h [1]: 229 µM
IC50 (Coxsackievirus B3): 16.8 µM
selectivity ratio [2]: 13.6

N#Cc1ccc(S(=O)(=O)N2C[C@@H]3CCCN4CCC[C@@H]([C@H]34)[C@H]2CCCCF)cc1
CC50 at 48 h [1]: 276 µM
IC50 (Coxsackievirus B3): 7.51 µM
selectivity ratio [2]: 36.7
LD50 at 168 h [3]: 353 mg/kg

NC(=O)c1ncn([C@@H]2O[C@H](CO)[C@@H](O)[C@H]2O)n1 [RIBAVIRIN]
CC50 at 48 h [1]: 6360 to 8200 µM
IC50 (Coxsackievirus B3): 379 to 695 µM
selectivity ratio [2]: 11.8 to 16.8
IC50 (Coxsackievirus B1): 2380 µM
IC50 [4]: > 500 µM
IC50 (Coxsackievirus B4): > 500 µM
IC50 (Coxsackievirus B5): 3320 µM
IC50 [5]: 2090 µM
